# PubChem BioAssay (NCI)
#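 GI50 marks 50% less growth. TGI is the concentration that stops growth completely.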
# Columns and labels:
# Test in all cases: NCI tumour cell line growth inhibition, 384-well format
# [1] = test system: SK-OV-3 ovarian
# [2] = test system: RXF 393 renal
# [3] = test system: SR leukemia
# [4] = test system: EKVX NSCLC
# [5] = test system: NCI-H226 lung
# [6] = test system: NCI-H322M lung
# [7] = test system: A549 NSCLC
# [8] = test system: PC-3 prostate
# [9] = test system: MALME-3M melanoma
# [10] = test system: M14 melanoma
# [11] = test system: SNB-19 CNS
# [12] = test system: HCT-15 colon
# [13] = test system: U251 glioblastoma
# [14] = test system: MDA-MB-468 breast
# [15] = test system: A498 renal
# [16] = test system: BT-549 breast
# [17] = test system: DU-145 prostate
# [18] = test system: OVCAR-3 ovarian
# [19] = test system: OVCAR-8 ovarian
# [20] = test system: NCI-H23 lung
# [21] = test system: OVCAR-4 ovarian
# [22] = test system: SN12C renal
# [23] = test system: HOP-62 NSCLC
# [24] = test system: HT29 colon
# [25] = test system: HL-60(TB) leukemia
# [26] = test system: MOLT-4 leukemia
# [27] = test system: IGROV1 ovarian
# [28] = test system: LOX IMVI melanoma
# [29] = test system: HCT-116 colon
# [30] = test system: MCF7 breast
# [31] = test system: NCI-H460 NSCLC
# [32] = test system: UACC-257 melanoma
# [33] = test system: SF-295 CNS
# [34] = test system: MDA-MB-231 breast
# [35] = test system: NCI/ADR-RES ovarian
# [36] = test system: ACHN renal
# [37] = test system: COLO 205 colon
# [38] = test system: SNB-75 CNS
# [39] = test system: NCI-H522 lung
# [40] = test system: SK-MEL-28 melanoma
# [41] = test system: CAKI-1 renal
# [42] = test system: HS 578T breast
# [43] = test system: OVCAR-5 ovarian
# [44] = test system: MDA-MB-435 melanoma
# [45] = test system: HOP-92 NSCLC
# [46] = test system: HCC-2998 colon
# [47] = test system: SF-539 CNS
# [48] = test system: T-47D breast
# [49] = test system: SK-MEL-5 melanoma
# [50] = test system: UACC-62 melanoma
# [51] = test system: KM12 colon
# [52] = test system: RPMI-8226 leukemia
# [53] = test system: TK-10 renal
# [54] = test system: SF-268 CNS
# [55] = test system: K-562 leukemia
# [56] = test system: 786-0 renal
# [57] = test system: UO-31 renal
smiles,measurement,setting,value
NC(=O)c1cnc(N[C@@H]2CCCC[C@@H]2N)nc1Nc1cccc(-n2nccn2)c1,GI50,[1],0.623 µM
same,TGI,[1],2.82 µM
same,GI50,[2],1.51 µM
same,TGI,[2],2.91 µM
same,GI50,[3],0.183 µM
same,TGI,[3],1.47 µM
same,GI50,[4],1.42 µM
same,TGI,[4],2.92 µM
same,GI50,[5],1.21 µM
same,TGI,[5],2.51 µM
same,GI50,[6],1.13 µM
same,TGI,[6],2.43 µM
same,GI50,[7],1.31 µM
same,TGI,[7],2.7 µM
same,GI50,[8],0.617 µM
same,TGI,[8],2.43 µM
same,GI50,[9],1.23 µM
same,TGI,[9],2.49 µM
same,GI50,[10],0.714 µM
same,TGI,[10],2.03 µM
same,GI50,[11],1.31 µM
same,TGI,[11],4 µM
same,GI50,[12],1.23 µM
same,TGI,[12],2.61 µM
same,GI50,[13],1.39 µM
same,TGI,[13],2.75 µM
same,GI50,[14],1.44 µM
same,TGI,[14],2.81 µM
same,GI50,[15],1.04 µM
same,TGI,[15],2.26 µM
same,GI50,[16],0.848 µM
same,TGI,[16],2.11 µM
same,GI50,[17],1.25 µM
same,TGI,[17],2.98 µM
same,GI50,[18],1.02 µM
same,TGI,[18],2.3 µM
same,GI50,[19],1.14 µM
same,TGI,[19],2.41 µM
same,GI50,[20],0.801 µM
same,TGI,[20],2.15 µM
same,GI50,[21],0.236 µM
same,TGI,[21],1.98 µM
same,GI50,[22],0.178 µM
same,TGI,[22],1.63 µM
same,GI50,[23],0.462 µM
same,TGI,[23],2.06 µM
same,GI50,[24],0.502 µM
same,TGI,[24],1.98 µM
same,GI50,[25],0.0126 µM
same,TGI,[25],0.153 µM
same,GI50,[26],1.14 µM
same,TGI,[26],2.37 µM
same,GI50,[27],0.631 µM
same,TGI,[27],2.29 µM
same,GI50,[28],0.372 µM
same,TGI,[28],1.45 µM
same,GI50,[29],1.03 µM
same,TGI,[29],2.32 µM
same,GI50,[30],0.225 µM
same,TGI,[30],1.77 µM
same,GI50,[31],1.41 µM
same,TGI,[31],2.77 µM
same,GI50,[32],1.1 µM
same,TGI,[32],2.3 µM
same,GI50,[33],1.65 µM
same,TGI,[33],3.06 µM
same,GI50,[34],1.15 µM
same,TGI,[34],3.77 µM
same,GI50,[35],9.3 µM
same,TGI,[35],21.5 µM
same,GI50,[36],1.28 µM
same,TGI,[36],2.57 µM
same,GI50,[37],0.761 µM
same,TGI,[37],2.06 µM
same,GI50,[38],1.41 µM
same,TGI,[38],3.23 µM
same,GI50,[39],0.274 µM
same,TGI,[39],1.59 µM
same,GI50,[40],1.38 µM
same,TGI,[40],2.69 µM
same,GI50,[41],0.473 µM
same,TGI,[41],1.83 µM
same,GI50,[42],1.08 µM
same,TGI,[42],2.32 µM
same,GI50,[43],0.769 µM
same,TGI,[43],2.34 µM
same,GI50,[44],0.571 µM
same,TGI,[44],1.92 µM
same,GI50,[45],1.27 µM
same,TGI,[45],2.98 µM
same,GI50,[46],0.415 µM
same,TGI,[46],1.85 µM
same,GI50,[47],1.29 µM
same,TGI,[47],2.59 µM
same,GI50,[48],1.41 µM
same,TGI,[48],2.78 µM
same,GI50,[49],0.145 µM
same,TGI,[49],1.13 µM
same,GI50,[50],0.305 µM
same,TGI,[50],1.81 µM
same,GI50,[51],0.41 µM
same,TGI,[51],1.69 µM
same,GI50,[52],0.227 µM
same,TGI,[52],1.35 µM
same,GI50,[53],0.438 µM
same,TGI,[53],1.84 µM
same,GI50,[54],1.56 µM
same,TGI,[54],3.11 µM
Cc1c(C#N)cccc1-c1cc(-c2cn(Cc3cccc(C(C)(C)O)n3)nn2)nc(N)n1,GI50,[1],33.8 µM
same,TGI,[1],> 100 µM
same,GI50,[4],32.1 µM
same,TGI,[4],> 100 µM
same,GI50,[8],29.9 µM
same,TGI,[8],> 100 µM
same,GI50,[9],25.2 µM
same,TGI,[9],96.4 µM
same,GI50,[55],25.3 µM
same,TGI,[55],> 100 µM
same,GI50,[10],57.8 µM
same,TGI,[10],> 100 µM
same,GI50,[56],38.2 µM
same,TGI,[56],> 100 µM
same,GI50,[14],0.368 µM
same,TGI,[14],28.7 µM
same,GI50,[24],41.1 µM
same,TGI,[24],> 100 µM
same,GI50,[32],25.7 µM
same,TGI,[32],79 µM
same,GI50,[33],25.6 µM
same,TGI,[33],95.8 µM
same,GI50,[34],30.5 µM
same,TGI,[34],> 100 µM
same,GI50,[35],17.5 µM
same,TGI,[35],44.5 µM
same,GI50,[38],53.2 µM
same,TGI,[38],> 100 µM
same,GI50,[39],18.3 µM
same,TGI,[39],62.4 µM
same,GI50,[44],36 µM
same,TGI,[44],> 100 µM
same,GI50,[48],15.2 µM
same,TGI,[48],50.9 µM
same,GI50,[51],0.334 µM
same,TGI,[51],> 100 µM
same,GI50,[57],19 µM
same,TGI,[57],62.5 µM
same,GI50,[52],14.9 µM
same,TGI,[52],31.5 µM
same,GI50,[53],24 µM
same,TGI,[53],96.3 µM
